Legend:
[1] = test system: RAW264.7; assay: Antiinflammatory activity in mouse RAW264.7 cells assessed as inhibition of LPS-induced NO production preincubated for 3 hrs followed by LPS-stimulation and measured after 24 hrs by Griess reagent based assay; type: functional, cell-based
[2] = test system: RAW264.7; assay: Cytotoxicity against mouse RAW264.7 cells assessed as cell viability measured after 24 hrs by CCK8 assay; type: cell-based; conditions: raw264.7, 24 h
[3] = test system: RAW264.7; assay: Antiinflammatory activity in mouse RAW264.7 cells assessed as inhibition of LPS-induced iNOSs protein expression preincubated for 3 hrs followed by LPS-stimulation and measured after 24 hrs by Western blot analysis; type: functional, cell-based; conditions: dose 3-30 µM
[4] = test system: RAW264.7; assay: Antiinflammatory activity in mouse RAW264.7 cells assessed as inhibition of LPS-induced iNOS enzyme activity preincubated for 3 hrs followed by LPS-stimulation and measured after 24 hrs by fluorescence plate reader assay; type: functional, cell-based; conditions: dose 3-30 µM

SMILES	IC50 [1] [µM]	Activity [2]	inhibition [3]	inhibition [4]
C[C@H]1C2=CC(=O)OC2=C[C@H]2[C@H]1C[C@@H](O)[C@H]1C(C)(C)CCC[C@]21C	34.4	Non-Toxic		
C[C@H]1C2=CC(=O)NC2=C[C@H]2[C@H]1C[C@@H](O)[C@H]1C(C)(C)CCC[C@]21C	8.2	Non-Toxic	Dose-Dependent Effect	Dose-Dependent Effect
CC(=O)O[C@H]1CC[C@]2(C)[C@H]3C[C@H]4OC(=O)C=C4[C@H](C)[C@@H]3CC[C@H]2C1(C)C	49.8	Non-Toxic		
CO[C@@]12C[C@H]3[C@@H](C[C@@H](OC(C)=O)[C@H]4C(C)(C)CCC[C@]34C)[C@@H](C)C1=CC(=O)O2	> 50	Non-Toxic		
C[C@H]1C2=CC(=O)OC2=C[C@H]2[C@H]1C[C@@H](O)[C@H]1[C@](C)(CO)CCC[C@]21C	45.8	Non-Toxic		
CC(=O)O[C@@H]1CC(C)(C)[C@@H]2CC[C@H]3[C@@H](C)C4=CC(=O)O[C@@H]4C[C@@H]3[C@@]2(C)C1	> 50	Non-Toxic		
C[C@H]1C2=CC(=O)N(CCO)[C@@H]2C[C@H]2[C@H]1C[C@@H](O)[C@H]1C(C)(C)CCC[C@]21C	16.4	Non-Toxic		
CO[C@@]12C[C@H]3[C@@H](CC[C@H]4C(C)(C)CCC[C@]34C)[C@@H](C)C1=CC(=O)O2	> 50	Non-Toxic		
C[C@H]1C2=CC(=O)O[C@@H]2C[C@H]2[C@H]1C[C@@H](O)[C@H]1C(C)(C)CCC[C@]21C	40.3	Non-Toxic		
CC(=O)O[C@@H]1C[C@@H]2[C@H](C=C3NC(=O)C=C3[C@]2(C)O)[C@@]2(C)CCCC(C)(C)[C@H]12	11.2	Non-Toxic		

The next lines start with results.

IC50 [1] [µM]	SMILES	Activity [2]	inhibition [3]	inhibition [4]
29.2	CO[C@@]12C[C@H]3[C@@H](C[C@@H](O)[C@H]4C(C)(C)CCC[C@]34C)[C@@H](C)C1=CC(=O)O2	Non-Toxic		
> 50	C[C@H]1C2=CC(=O)O[C@@H]2C[C@H]2[C@H]1C[C@@H](O)[C@H]1[C@@](C)(CO)CCC[C@]21C	Non-Toxic		
21.5	C[C@H]1C2=CC(=O)O[C@]2(O)C[C@H]2[C@H]1C[C@@H](O)[C@H]1C(C)(C)CCC[C@]21C	Non-Toxic		
9.8	CC(=O)O[C@@H]1C[C@@H]2[C@H](C=C3NC(=O)C=C3[C@@]2(C)O)[C@@]2(C)CCCC(C)(C)[C@H]12	Non-Toxic		
> 50	CC(=O)O[C@@H]1C[C@H]2[C@@H](C)C3=CC(=O)OC3=C[C@@H]2[C@@]2(C)CCCC(C)(C)[C@H]12	Non-Toxic		
0.58	C[C@@H]1C[C@H]2[C@@H]3CCC4=CC(=O)C=C[C@]4(C)[C@@]3(F)[C@@H](O)C[C@]2(C)[C@@]1(O)C(=O)CO [DEXAMETHASONE]	Non-Toxic		
> 50	CC(=O)O[C@@H]1C[C@H]2[C@@H](C)C3=CC(=O)O[C@@H]3C[C@@H]2[C@@]2(C)CCCC(C)(C)[C@H]12	Non-Toxic		
21	C[C@@H]1[C@@H]2C[C@@H](O)[C@H]3[C@](C)(CO)CCC[C@]3(C)[C@H]2C=C2NC(=O)C[C@@H]21	Non-Toxic		
> 50	CO[C@@]12C[C@H]3[C@@H](C[C@@H](O)[C@H]4[C@](C)(CO)CCC[C@]34C)[C@@H](C)C1=CC(=O)O2	Non-Toxic		

Reference: ChEMBL document CHEMBL4831508, “Anti-inflammatory Cassane-Type Diterpenoids from the Seed Kernels of Caesalpinia sinensis” (J Nat Prod, 2021)
